What was measured:
[1] = target: Beta-2 adrenergic receptor (Homo sapiens, UniProt P07550); assay: DRUGMATRIX: Adrenergic beta2 radioligand binding (ligand: [3H] CGP-12177); assay type: cell membranes, CHO, Membrane; conditions: cho; Not Active = under 50% inhibition at 10 µM
[2] = target: T1, B2 bradykinin receptor (Homo sapiens, UniProt P30411); assay type: cell membranes, Membrane; conditions: chem-1; also: in other assays of this panel Not Active means under 50% inhibition at 10 µM
T1 sequence (P30411 whole entry): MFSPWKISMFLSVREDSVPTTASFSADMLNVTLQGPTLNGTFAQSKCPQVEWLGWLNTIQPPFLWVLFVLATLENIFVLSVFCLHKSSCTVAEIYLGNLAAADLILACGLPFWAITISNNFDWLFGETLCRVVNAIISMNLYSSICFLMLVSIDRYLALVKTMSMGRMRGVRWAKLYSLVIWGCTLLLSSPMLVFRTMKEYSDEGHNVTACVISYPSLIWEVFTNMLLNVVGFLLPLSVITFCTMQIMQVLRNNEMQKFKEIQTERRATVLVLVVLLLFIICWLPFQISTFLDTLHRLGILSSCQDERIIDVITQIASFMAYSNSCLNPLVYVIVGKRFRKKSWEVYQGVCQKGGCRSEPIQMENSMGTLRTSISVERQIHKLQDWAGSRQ

[3] = target: C-C chemokine receptor type 2 (Homo sapiens, UniProt P41597); assay type: cell membranes, CHO-K1, Membrane; conditions: cho-k1; also: in other assays of this panel Not Active means under 50% inhibition at 10 µM
[4] = target: T2, C-X-C chemokine receptor type 2 (Homo sapiens, UniProt P25025); assay type: cell membranes, CHO-K1, Membrane; conditions: cho-k1; also: in other assays of this panel Not Active means under 50% inhibition at 10 µM
T2 sequence (P25025 whole entry): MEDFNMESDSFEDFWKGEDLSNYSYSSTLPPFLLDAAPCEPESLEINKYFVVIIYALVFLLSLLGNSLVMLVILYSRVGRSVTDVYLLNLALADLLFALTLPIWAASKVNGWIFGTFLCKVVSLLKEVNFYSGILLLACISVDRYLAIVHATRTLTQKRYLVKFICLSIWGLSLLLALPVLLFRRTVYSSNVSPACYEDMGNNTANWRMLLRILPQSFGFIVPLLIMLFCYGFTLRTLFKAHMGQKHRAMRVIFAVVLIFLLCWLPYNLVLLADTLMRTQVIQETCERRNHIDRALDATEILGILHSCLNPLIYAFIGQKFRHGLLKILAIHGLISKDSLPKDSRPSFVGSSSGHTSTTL

[5] = target: Epidermal growth factor receptor (Homo sapiens, UniProt P00533); assay: DRUGMATRIX: Protein Tyrosine Kinase, EGF Receptor enzyme inhibition (substrate: Poly(Glu:Tyr)); assay type: cell-based, Insect cells; conditions: Not Active = under 50% inhibition at 10 µM
[6] = target: Tyrosine-protein kinase Fyn (Homo sapiens, UniProt P06241); assay: biochemical; assay type: cell-based, Insect cells; conditions: insect cells;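 also: enzymatic inhibition of Fyn kinase activity measured with Poly(Glu:Tyr) as the phosphorylation substrate; in other assays of this panel Not Active means under 50% inhibition at 10 µM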
[7] = DRUGMATRIX: Purinergic P2X radioligand binding (ligand: [3H] alpha, beta-Methylene-ATP); assay type: cell membranes, Oryctolagus cuniculus, New Zealand albino, Urinary bladder, Membrane; conditions: Not Active = under 50% inhibition at 10 µM
[8] = target: Cytochrome P450 2C9 (Homo sapiens, UniProt P11712); conditions: bti-tn-5b1-4; also: in other assays of this panel Not Active means under 50% inhibition at 10 µM
Chain of Cytochrome P450 2C9 (P11712 whole entry): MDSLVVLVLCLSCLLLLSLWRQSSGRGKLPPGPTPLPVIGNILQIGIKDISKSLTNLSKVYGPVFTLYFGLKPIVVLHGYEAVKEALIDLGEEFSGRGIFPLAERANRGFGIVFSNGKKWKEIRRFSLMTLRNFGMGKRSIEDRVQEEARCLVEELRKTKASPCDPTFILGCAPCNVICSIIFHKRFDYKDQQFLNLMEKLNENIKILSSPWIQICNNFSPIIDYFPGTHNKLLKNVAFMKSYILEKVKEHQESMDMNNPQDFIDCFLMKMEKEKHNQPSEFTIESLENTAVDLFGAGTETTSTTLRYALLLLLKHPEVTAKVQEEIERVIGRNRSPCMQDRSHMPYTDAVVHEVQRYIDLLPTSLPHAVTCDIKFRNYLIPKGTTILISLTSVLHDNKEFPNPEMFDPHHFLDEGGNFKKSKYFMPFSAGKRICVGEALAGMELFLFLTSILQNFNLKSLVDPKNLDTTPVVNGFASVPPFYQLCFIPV

Chain of Epidermal growth factor receptor (P00533 whole entry): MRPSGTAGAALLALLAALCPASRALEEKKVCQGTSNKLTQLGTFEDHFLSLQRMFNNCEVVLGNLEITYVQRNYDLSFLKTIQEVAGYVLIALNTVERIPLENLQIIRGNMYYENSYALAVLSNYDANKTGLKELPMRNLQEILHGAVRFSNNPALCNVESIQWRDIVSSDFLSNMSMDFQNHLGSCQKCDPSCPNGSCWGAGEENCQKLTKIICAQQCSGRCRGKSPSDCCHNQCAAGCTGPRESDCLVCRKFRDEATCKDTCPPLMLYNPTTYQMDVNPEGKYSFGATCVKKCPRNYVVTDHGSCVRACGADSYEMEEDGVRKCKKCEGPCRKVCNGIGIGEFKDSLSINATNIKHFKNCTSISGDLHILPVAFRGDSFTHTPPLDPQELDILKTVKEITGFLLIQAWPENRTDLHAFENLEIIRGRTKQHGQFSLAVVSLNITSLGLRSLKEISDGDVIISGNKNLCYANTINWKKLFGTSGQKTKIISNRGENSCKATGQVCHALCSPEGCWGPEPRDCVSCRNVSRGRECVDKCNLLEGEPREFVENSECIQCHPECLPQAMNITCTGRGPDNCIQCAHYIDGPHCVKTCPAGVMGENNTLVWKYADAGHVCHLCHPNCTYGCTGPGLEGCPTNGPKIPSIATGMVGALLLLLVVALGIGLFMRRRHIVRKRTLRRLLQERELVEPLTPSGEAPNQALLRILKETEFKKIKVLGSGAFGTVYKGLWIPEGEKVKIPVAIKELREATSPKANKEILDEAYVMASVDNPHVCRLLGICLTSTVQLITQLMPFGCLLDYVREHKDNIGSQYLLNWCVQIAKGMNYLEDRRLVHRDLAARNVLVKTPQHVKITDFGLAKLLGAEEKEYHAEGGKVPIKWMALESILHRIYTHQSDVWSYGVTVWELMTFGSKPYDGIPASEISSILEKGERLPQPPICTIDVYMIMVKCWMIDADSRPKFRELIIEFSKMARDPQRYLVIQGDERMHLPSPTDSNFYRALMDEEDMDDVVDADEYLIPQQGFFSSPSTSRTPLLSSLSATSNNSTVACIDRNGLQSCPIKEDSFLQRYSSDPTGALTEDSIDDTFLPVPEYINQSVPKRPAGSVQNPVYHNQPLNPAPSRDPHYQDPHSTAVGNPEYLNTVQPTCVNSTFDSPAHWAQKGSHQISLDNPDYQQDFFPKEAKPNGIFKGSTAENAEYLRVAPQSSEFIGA
Chain of Beta-2 adrenergic receptor (P07550 whole entry): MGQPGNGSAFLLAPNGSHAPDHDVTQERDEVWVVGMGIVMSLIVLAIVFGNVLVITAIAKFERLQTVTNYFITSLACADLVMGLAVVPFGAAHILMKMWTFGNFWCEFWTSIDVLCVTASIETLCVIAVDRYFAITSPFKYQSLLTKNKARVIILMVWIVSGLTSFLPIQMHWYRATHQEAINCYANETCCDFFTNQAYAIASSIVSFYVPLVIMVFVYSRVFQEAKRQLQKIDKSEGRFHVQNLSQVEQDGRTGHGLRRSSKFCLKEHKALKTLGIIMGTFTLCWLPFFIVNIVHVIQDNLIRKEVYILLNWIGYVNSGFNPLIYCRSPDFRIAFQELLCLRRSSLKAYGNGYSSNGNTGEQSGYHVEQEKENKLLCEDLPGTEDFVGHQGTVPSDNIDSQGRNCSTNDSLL
Chain of C-C chemokine receptor type 2 (P41597 whole entry): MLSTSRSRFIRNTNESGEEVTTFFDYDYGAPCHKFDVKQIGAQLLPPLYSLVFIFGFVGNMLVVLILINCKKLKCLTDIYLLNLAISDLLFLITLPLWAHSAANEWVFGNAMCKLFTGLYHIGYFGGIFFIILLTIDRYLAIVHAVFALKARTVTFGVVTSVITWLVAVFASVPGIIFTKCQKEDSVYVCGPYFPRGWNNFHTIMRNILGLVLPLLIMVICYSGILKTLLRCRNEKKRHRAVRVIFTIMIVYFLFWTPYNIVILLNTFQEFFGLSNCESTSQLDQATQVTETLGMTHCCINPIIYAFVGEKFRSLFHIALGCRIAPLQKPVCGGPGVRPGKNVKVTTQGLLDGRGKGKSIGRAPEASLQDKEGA
Chain of Tyrosine-protein kinase Fyn (P06241 whole entry): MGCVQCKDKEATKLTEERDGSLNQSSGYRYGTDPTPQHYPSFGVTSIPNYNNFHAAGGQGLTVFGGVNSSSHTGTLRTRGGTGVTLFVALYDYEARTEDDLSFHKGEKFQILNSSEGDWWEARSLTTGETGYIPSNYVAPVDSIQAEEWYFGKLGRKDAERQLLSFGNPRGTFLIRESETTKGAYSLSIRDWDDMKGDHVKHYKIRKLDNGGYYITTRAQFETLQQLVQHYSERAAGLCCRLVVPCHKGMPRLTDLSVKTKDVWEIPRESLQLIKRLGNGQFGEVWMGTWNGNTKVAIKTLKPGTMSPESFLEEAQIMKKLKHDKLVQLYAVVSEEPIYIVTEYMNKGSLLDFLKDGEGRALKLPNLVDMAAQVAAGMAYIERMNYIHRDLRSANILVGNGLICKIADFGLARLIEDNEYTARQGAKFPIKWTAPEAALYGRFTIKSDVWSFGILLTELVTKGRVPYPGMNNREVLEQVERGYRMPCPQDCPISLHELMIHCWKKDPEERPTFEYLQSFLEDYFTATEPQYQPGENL

Row | Compound | IC50 [1] | IC50 [2] | IC50 [3] | IC50 [4] | IC50 ([5]; insect cells) | IC50 [6] | IC50 [7] | Ki [7] | IC50 [8] | Ki [8] | IC50 ([5]; read-out: IC50) [µM]
1 | c1ccc2c(c1)Nc1ccccc1S2 [PHENOTHIAZINE] | Not Active | Not Active | Not Active | Not Active | Not Active | Not Active | Not Active | Not Active | Not Active | Not Active | 
2 | OC[C@H]1OC2C3[C@@H](CO)OC(O[C@H]4[C@H](O)[C@@H](O)[C@@H](O[C@H]5[C@H](O)[C@@H](O)[C@@H](O[C@H]6[C@H](O)[C@@H](O)[C@@H](O[C@H]7[C@H](O)[C@@H](O)[C@@H](O[C@H]8[C@H](O)[C@@H](O)[C@@H](O[C@H]9[C@H](O)[C@@H](O)C(OC1[C@H](O)[C@H]2O)O[C@@H]9CO)O[C@@H]8CO)O[C@@H]7CO)O[C@@H]6CO)O[C@@H]5CO)O[C@@H]4CO)[C@H](O)[C@H]3O | Not Active | Not Active | Not Active | Not Active | Not Active | Not Active | Not Active | Not Active | Not Active | Not Active | 
3 | CC(C)Cc1ccc([C@H](C)C(=O)O)cc1 [DEXIBUPROFEN] | Not Active | Not Active | Not Active | Not Active | Not Active | Not Active | Not Active | Not Active | Not Active | Not Active | 
4 | CC(N)Cc1c[nH]c2ccc(OCc3cccs3)cc12 (stereo not given) [BW-723C86] | Not Active | Not Active | Not Active | Not Active | Not Active | Not Active | Not Active | Not Active | Not Active | Not Active | 
5 | CC(=O)[C@]1(O)Cc2c(O)c3c(c(O)c2[C@@H](O[C@H]2C[C@H](N)[C@H](O)[C@H](C)O2)C1)C(=O)c1ccccc1C3=O [IDARUBICIN] | Not Active | Not Active | Not Active | Not Active | Not Active | Not Active | Not Active | Not Active | Not Active | Not Active | 
6 | NC(=O)NC(=O)Cc1ccccc1 [PHENACEMIDE] | Not Active | Not Active | Not Active | Not Active | Not Active | Not Active | Not Active | Not Active | Not Active | Not Active | 
7 | Nc1ccc(C(=O)O)c(O)c1 [AMINOSALICYLIC ACID] | Not Active | Not Active | Not Active | Not Active | Not Active | Not Active | Not Active | Not Active | Not Active | Not Active | 
8 | Nc1nc(N)c2nc(CNc3ccc(C(=O)N[C@@H](CCC(=O)O)C(=O)O)cc3)cnc2n1 [AMINOPTERIN] | Not Active | Not Active | Not Active | Not Active | Not Active | Not Active | Not Active | Not Active | Not Active | Not Active | 
9 | c1ccc(Cn2ccnc2)cc1 | Not Active | Not Active | Not Active | Not Active | Not Active | Not Active | Not Active | Not Active | Not Active | Not Active | 
10 | CC(C)(C#N)c1cc(Cn2cncn2)cc(C(C)(C)C#N)c1 [ANASTROZOLE] | Not Active | Not Active | Not Active | Not Active | Not Active | Not Active | Not Active | Not Active | Not Active | Not Active | 
11 | COc1cc(/C=C/C(=O)O)ccc1O [FERULATE] | Not Active | Not Active | Not Active | Not Active | Not Active | Not Active | Not Active | Not Active | Not Active | Not Active | 
12 | C[N+](C)(C)CCOC(N)=O.[Cl-] [CARBACHOL] | Not Active | Not Active | Not Active | Not Active | Not Active | Not Active | Not Active | Not Active | Not Active | Not Active | 
13 | CC1(COc2ccc(CC3SC(=O)NC3=O)cc2)CCCCC1 (stereo not given) [CIGLITAZONE] | Not Active | Not Active | Not Active | Not Active |  | Not Active | Not Active | Not Active | Not Active | Not Active | 4.66
14 | Oc1ncnc2[nH]ncc12 [ALLOPURINOL] | Not Active | Not Active | Not Active | Not Active | Not Active | Not Active | Not Active | Not Active | Not Active | Not Active | 
15 | Cc1cc(C(C)(C)C)c(O)c(C)c1CC1=NCCN1 [OXYMETAZOLINE] | Not Active | Not Active | Not Active | Not Active | Not Active | Not Active | Not Active | Not Active | Not Active | Not Active | 
16 | CC(C)Cn1cnc2c(N)nc3ccccc3c21 [IMIQUIMOD] | Not Active | Not Active | Not Active | Not Active | Not Active | Not Active | Not Active | Not Active | Not Active | Not Active | 
